Where only a bound is given, the exact number is not on record here.

Consider twelve compounds from patent publication US11331369B2, “Endoparasitic depsipeptides” (Zoetis Services LLC, priority 2017, dated 2022).

The test system of data set [1] is microfilariae of Dirofilaria immitis. Nature of the data set: Dirofilaria immitis, Microfilaria (DiMF) In vitro Assay. It is filed as cell-based. The settings on record: 72 h, read-out: DiMF Minimum Effective Dose (MED), approximately 72 hours incubation, microfilariae assessed for survival or paralysis.
A short description of data set [2]: Canine pharmacokinetic (PK) study, single IV or oral dose. The following applies: dog, in vivo, po, 1 mg/kg.
For data set [3], the system named is third stage larvae of Haemonchus contortus. Nature of the data set: Haemonchus contortus L3 (HcL3) Assay. It is filed as cell-based. The settings on record: 96 h, read-out: HcL3 Minimum Effective Dose (MED).
The subject of data set [4] is 4th stage larvae (L4) of Dirofilaria immitis. Kind of data set: Dirofilaria immitis, L4 Stage (DiL4) In Vitro Assay. It is filed as cell-based. The settings on record: Dirofilaria immitis, 72 h, read-out: DiL4 Minimum Effective Dose (MED), approximately 72 hours incubation; L4 larvae assessed for survival or paralysis.

As a reminder, the Cmax is the highest concentration seen after dosing. Broadly, the half-life is how long it takes for the measured level to halve. Read a low half-life as fast loss. Consider `CC(C)C[C@H]1C(=O)O[C@H](Cc2ccc(Cn3cc(C4CC4)cn3)cc2)C(=O)N(C)[C@@H](CC(C)C)C(=O)O[C@H](C)C(=O)N(C)[C@@H](CC(C)C)C(=O)O[C@H](Cc2ccc(Cn3cc(C4CC4)cn3)cc2)C(=O)N(C)[C@@H](CC(C)C)C(=O)O[C@H](C)C(=O)N1C` [Example 1b-45, (3S,6R,9S,12R,15S,18R,21S,24R)-6,18-bis(4-((4-cyclopropyl-1H-pyrazol-1-yl)methyl)benzyl)-3,9,15,21-tetraisobutyl-4,10,12,16,22,24-hexamethyl-1,7,13,19-tetraoxa-4,10,16,22-tetraazacyclotetracosan-2,5,8,11,14,17,20,23-octaone], for which the minimal effective concentration in data set [1] lay within 0.01 to 0.1 µM. In data set [2], this compound showed a Cmax of 127 ng/mL and a half-life of 104 h.

Regarding `CC(C)C[C@H]1C(=O)O[C@H](Cc2ccc(Cn3ncnc3CC(C)(C)C)cc2)C(=O)N(C)[C@@H](CC(C)C)C(=O)O[C@H](C)C(=O)N(C)[C@@H](CC(C)C)C(=O)O[C@H](Cc2ccc(Cn3ncnc3CC(C)(C)C)cc2)C(=O)N(C)[C@@H](CC(C)C)C(=O)O[C@H](C)C(=O)N1C` [Example 9-56, (3S,6R,9S,12R,15S,18R,21S,24R)-3,9,15,21-tetraisobutyl-4,6,10,16,18,22-hexamethyl-12,24-bis(4-((5-neopentyl-1H-1,2,4-triazol-1-yl)methyl)benzyl)-1,7,13,19-tetraoxa-4,10,16,22-tetraazacyclotetracosan-2,5,8,11,14,17,20,23-octaone], the minimal effective concentration in data set [3] lay in the range of 1 to 10 µM; in data set [1] it was 0.001 to 0.01 µM; in data set [4], 0.001 to 0.01 µM.

For `Cc1ccc(C#N)n1Cc1ccc(C[C@H]2OC(=O)[C@H](CC(C)C)N(C)C(=O)[C@@H](C)OC(=O)[C@H](CC(C)C)N(C)C(=O)[C@@H](Cc3ccccc3)OC(=O)[C@H](CC(C)C)N(C)C(=O)[C@@H](C)OC(=O)[C@H](CC(C)C)N(C)C2=O)cc1` [Example 10-30, 1-(4-(((2R,5S,8R,11S,14R,17S,20R,23S)-14-benzyl-5,11,17,23-tetraisobutyl-4,8,10,16,20,22-hexamethyl-3,6,9,12,15,18,21,24-octaoxo-1,7,13,19-tetraoxa-4,10,16,22-tetraazacyclotetracosan-2-yl)methyl)benzyl)-5-methyl-1H-pyrrole-2-carbonitrile], the minimal effective concentration in data set [3] fell in the range of 1 to 10 µM; in data set [1], 0.001 to 0.01 µM; in data set [4], 0.0001 to 0.001 µM.

On to `CC(C)C[C@H]1C(=O)O[C@H](Cc2ccc(Cn3cc(I)cn3)cc2)C(=O)N(C)[C@@H](CC(C)C)C(=O)O[C@H](C)C(=O)N(C)[C@@H](CC(C)C)C(=O)O[C@H](Cc2ccc(Cn3cccn3)cc2)C(=O)N(C)[C@@H](CC(C)C)C(=O)O[C@H](C)C(=O)N1C` [Example 1a-21, (3S,6R,9S,12R,15S,18R,21S,24R)-6-(4-((1H-pyrazol-1-yl)methyl)benzyl)-18-(4-((4-iodo-1H-pyrazol-1-yl)methyl)benzyl)-3,9,15,21-tetraisobutyl-4,10,12,16,22,24-hexamethyl-1,7,13,19-tetraoxa-4,10,16,22-tetraazacyclotetracosan-2,5,8,11,14,17,20,23-octaone], for which the results for the minimal effective concentration in data set [3], in data set [1] and in data set [4] were 1 to 10 µM, 0.001 to 0.01 µM and 0.0001 to 0.001 µM, respectively.

In the case of `CC(C)Cc1ncnn1Cc1ccc(C[C@H]2OC(=O)[C@H](CC(C)C)N(C)C(=O)[C@@H](C)OC(=O)[C@H](CC(C)C)N(C)C(=O)[C@@H](Cc3ccc(Cn4ncnc4CC(C)C)cc3)OC(=O)[C@H](CC(C)C)N(C)C(=O)[C@@H](C)OC(=O)[C@H](CC(C)C)N(C)C2=O)cc1` [Example 9-53, (3S,6R,9S,12R,15S,18R,21S,24R)-3,9,15,21-tetraisobutyl-6,18-bis(4-((5-isobutyl-1H-1,2,4-triazol-1-yl)methyl)benzyl)-4,10,12,16,22,24-hexamethyl-1,7,13,19-tetraoxa-4,10,16,22-tetraazacyclotetracosan-2,5,8,11,14,17,20,23-octaone], the minimal effective concentration was in the range of 1 to 10 µM in data set [3], 0.001 to 0.01 µM in data set [1] and 0.001 to 0.01 µM in data set [4].

For `CC(C)C[C@H]1C(=O)O[C@H](Cc2ccc(Cn3cc(F)cn3)cc2)C(=O)N(C)[C@@H](CC(C)C)C(=O)O[C@H](C)C(=O)N(C)[C@@H](CC(C)C)C(=O)O[C@H](Cc2ccccc2)C(=O)N(C)[C@@H](CC(C)C)C(=O)O[C@H](C)C(=O)N1C` [Example 2-28, (3S,6R,9S,12R,15S,18R,21S,24R)-6-benzyl-18-(4-((4-fluoro-1H-pyrazol-1-yl)methyl)benzyl)-3,9,15,21-tetraisobutyl-4,10,12,16,22,24-hexamethyl-1,7,13,19-tetraoxa-4,10,16,22-tetraazacyclotetracosan-2,5,8,11,14,17,20,23-octaone], the results for the minimal effective concentration in data set [3], in data set [1] and in data set [4] were 1 to 10 µM, 0.001 to 0.01 µM and 0.0001 to 0.001 µM, respectively.

Turning to `CCc1ccnn1Cc1ccc(C[C@H]2OC(=O)[C@H](CC(C)C)N(C)C(=O)[C@@H](C)OC(=O)[C@H](CC(C)C)N(C)C(=O)[C@@H](Cc3ccc(Cn4nccc4CC)cc3)OC(=O)[C@H](CC(C)C)N(C)C(=O)[C@@H](C)OC(=O)[C@H](CC(C)C)N(C)C2=O)cc1` [Example 1b-165, (3S,6R,9S,12R,15S,18R,21S,24R)-6,18-bis(4-((5-ethyl-1H-pyrazol-1-yl)methyl)benzyl)-3,9,15,21-tetraisobutyl-4,10,12,16,22,24-hexamethyl-1,7,13,19-tetraoxa-4,10,16,22-tetraazacyclotetracosan-2,5,8,11,14,17,20,23-octaone], the results for the minimal effective concentration in data set [3], in data set [1] and in data set [4] were not above 1 µM, 0.001 to 0.01 µM and 0.0001 to 0.001 µM, respectively.

With `CCc1cc(C)n(Cc2ccc(C[C@H]3OC(=O)[C@H](CC(C)C)N(C)C(=O)[C@@H](C)OC(=O)[C@H](CC(C)C)N(C)C(=O)[C@@H](Cc4ccc(Cn5nc(C)cc5CC)cc4)OC(=O)[C@H](CC(C)C)N(C)C(=O)[C@@H](C)OC(=O)[C@H](CC(C)C)N(C)C3=O)cc2)n1` [Example 1b-186, (3S,6R,9S,12R,15S,18R,21S,24R)-6-(4-((5-ethyl-3-methyl-1H-pyrazol-1-yl)methyl)benzyl)-18-(4-((3-ethyl-5-methyl-1H-pyrazol-1-yl)methyl)benzyl)-3,9,15,21-tetraisobutyl-4,10,12,16,22,24-hexamethyl-1,7,13,19-tetraoxa-4,10,16,22-tetraazacyclotetracosan-2,5,8,11,14,17,20,23-octaone], the minimal effective concentration was in the range of 1 to 10 µM in data set [3], 0.01 to 0.1 µM in data set [1] and 0.0001 to 0.001 µM in data set [4].

As to `Cc1ncc(-c2ccnn2Cc2ccc(C[C@H]3OC(=O)[C@H](CC(C)C)N(C)C(=O)[C@@H](C)OC(=O)[C@H](CC(C)C)N(C)C(=O)[C@@H](Cc4ccc(Cn5nccc5-c5cnc(C)nc5)cc4)OC(=O)[C@H](CC(C)C)N(C)C(=O)[C@@H](C)OC(=O)[C@H](CC(C)C)N(C)C3=O)cc2)cn1` [Example 1b-207, (3S,6R,9S,12R,15S,18R,21S,24R)-3,9,15,21-tetraisobutyl-4,6,10,16,18,22-hexamethyl-12,24-bis(4-((5-(2-methylpyrimidin-5-yl)-1H-pyrazol-1-yl)methyl)benzyl)-1,7,13,19-tetraoxa-4,10,16,22-tetraazacyclotetracosan-2,5,8,11,14,17,20,23-octaone], the minimal effective concentration in data set [3] lay in the range of 1 to 10 µM; in data set [1] it was 0.001 to 0.01 µM; in data set [4], 0.001 to 0.01 µM.

Take `CC(C)C[C@H]1C(=O)O[C@H](Cc2ccc(Cn3ncnc3C3CCCC3)cc2)C(=O)N(C)[C@@H](CC(C)C)C(=O)O[C@H](C)C(=O)N(C)[C@@H](CC(C)C)C(=O)O[C@H](Cc2ccc(Cn3ncnc3C3CCCC3)cc2)C(=O)N(C)[C@@H](CC(C)C)C(=O)O[C@H](C)C(=O)N1C` [Example 9-52, (3S,6R,9S,12R,15S,18R,21S,24R)-6,18-bis(4-((5-cyclopentyl-1H-1,2,4-triazol-1-yl)methyl)benzyl)-3,9,15,21-tetraisobutyl-4,10,12,16,22,24-hexamethyl-1,7,13,19-tetraoxa-4,10,16,22-tetraazacyclotetracosan-2,5,8,11,14,17,20,23-octaone]: the minimal effective concentration in data set [3] fell in the range of 1 to 10 µM; in data set [1], 0.001 to 0.01 µM; in data set [4] it was 0.001 to 0.01 µM.

As to `CC(C)C[C@H]1C(=O)O[C@H](Cc2ccc(Cn3nccc3C(C)C)cc2)C(=O)N(C)[C@@H](CC(C)C)C(=O)O[C@H](C)C(=O)N(C)[C@@H](CC(C)C)C(=O)O[C@H](Cc2ccccc2)C(=O)N(C)[C@@H](CC(C)C)C(=O)O[C@H](C)C(=O)N1C` [Example 2-69, (3S,6R,9S,12R,15S,18R,21S,24R)-6-benzyl-3,9,15,21-tetraisobutyl-18-(4-((5-isopropyl-1H-pyrazol-1-yl)methyl)benzyl)-4,10,12,16,22,24-hexamethyl-1,7,13,19-tetraoxa-4,10,16,22-tetraazacyclotetracosan-2,5,8,11,14,17,20,23-octaone], the minimal effective concentration was 1 to 10 µM in data set [3], 0.001 to 0.01 µM in data set [1] and 0.0001 to 0.001 µM in data set [4].

Consider `CC(C)C[C@H]1C(=O)O[C@H](Cc2ccc(Cn3nccc3C3CC3)cc2)C(=O)N(C)[C@@H](CC(C)C)C(=O)O[C@H](C)C(=O)N(C)[C@@H](CC(C)C)C(=O)O[C@H](Cc2ccccc2)C(=O)N(C)[C@@H](CC(C)C)C(=O)O[C@H](C)C(=O)N1C` [Example 2-66, (3S,6R,9S,12R,15S,18R,21S,24R)-6-benzyl-18-(4-((5-cyclopropyl-1H-pyrazol-1-yl)methyl)benzyl)-3,9,15,21-tetraisobutyl-4,10,12,16,22,24-hexamethyl-1,7,13,19-tetraoxa-4,10,16,22-tetraazacyclotetracosan-2,5,8,11,14,17,20,23-octaone], for which the minimal effective concentration was 1 to 10 µM in data set [3], 0.001 to 0.01 µM in data set [1] and 0.0001 to 0.001 µM in data set [4].
